Test results taken from US20060069132A1, “Azolecarboxamide herbicides” (priority 2004, published 2006).
Like-named read-outs stand apart in the source and are kept apart here.

Experiments:
giant foxtail = test: Test B pre-/postemergence herbicide test; assay type: in vivo, Setaria faberi; details: for pest or weed control at 500 g/ha: 500 g ai/ha
Procedure, shortened: (§1)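 Evaluation is visual, comparing treated with control plants on a scale where 0 means no effect and 100 means full control. Treatments were preemergence, or postemergence on seedlings 2–18 cm tall, and held 13–15 days in the greenhouse.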

ducksalad = test: Test B flooded paddy test; assay type: in vivo, Heteranthera limosa; details: Heteranthera limosa, 336 h, 1000 g ai/ha, scale 0 to 100 (0 no effect, 100 complete control), read-out: Ducksalad plant response rating
Procedure, shortened: (§2)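 Greenhouse test; postemergence application to plants at 1–4 leaves (2–18 cm); paddy species at 2 leaves; evaluated visually vs controls at 13–15 days; scale 0–100 (100 = complete control).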

wild oat = test: Test B postemergence herbicide test; assay type: in vivo, Avena fatua; details: Avena fatua, post-emergence, 336 h, read-out: Oat, Wild plant response rating
Procedure, shortened: (§3)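 Postemergence plants were sprayed with formulated test chemicals at 2 to 18 cm height (1- to 4-leaf stage); paddy species were grown to the 2-leaf stage. After 13 to 15 days in a greenhouse, injury was rated visually against untreated controls on a 0–100 scale (0 = no effect, 100 = complete control).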

blackgrass = test: Test B postemergence herbicide test; assay type: in vivo, Alopecurus myosuroides; details: Alopecurus myosuroides, post-emergence, 336 h, read-out: Blackgrass plant response rating
Procedure, shortened: as §2

wheat = test: Test B postemergence herbicide test; assay type: in vivo, Triticum aestivum; details: Triticum aestivum, post-emergence, 336 h, read-out: Wheat plant response rating
Procedure, shortened: as §3

large crabgrass = test: Test B pre-/postemergence herbicide test; assay type: in vivo, Digitaria sanguinalis; details: for pest or weed control at 500 g/ha: 500 g ai/ha
Procedure, shortened: as §1

pigweed = test: Test B pre-/postemergence herbicide test; assay type: in vivo, Amaranthus retroflexus; details: for pest or weed control at 500 g/ha: 500 g ai/ha
Procedure, shortened: as §1

[1] = test system: small flower umbrella sedge; test: Test B flooded paddy test; assay type: in vivo, Cyperus difformis; details: Cyperus difformis, 336 h, 1000 g ai/ha, scale 0 to 100 (0 no effect, 100 complete control), read-out: Sedge, Umbrella plant response rating
Procedure, shortened: as §2

corn = test: Test B pre-/postemergence herbicide test; assay type: in vivo, Zea mays
Procedure, shortened: as §1

cocklebur = test: Test B pre-/postemergence herbicide test; assay type: in vivo, Xanthium strumarium; details: for pest or weed control at 500 g/ha: 500 g ai/ha
Procedure, shortened: (§4)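 Greenhouse pot assay with simultaneous preemergence (treated seed) and postemergence (2–18 cm seedlings) applications of surfactant-containing, non-phytotoxic solvent formulations. Response scored visually 13–15 days later on a 0–100 scale, 100 meaning complete control.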

Surinam grass = test: Test B pre-/postemergence herbicide test; assay type: in vivo, Urochloa decumbens; details: for pest or weed control at 500 g/ha: 500 g ai/ha
Procedure, shortened: as §1

lambsquarters = test: Test B pre-/postemergence herbicide test; assay type: in vivo, Chenopodium album; details: for pest or weed control at 500 g/ha: 500 g ai/ha
Procedure, shortened: as §1

barnyardgrass = test: Test B pre-/postemergence herbicide test; assay type: in vivo, Echinochloa crus-galli; details: for pest or weed control at 500 g/ha: 500 g ai/ha
Procedure, shortened: as §4

rice = test: Test B flooded paddy test; assay type: in vivo, Oryza sativa; details: Oryza sativa, 336 h, 1000 g ai/ha, scale 0 to 100 (0 no effect, 100 complete control), read-out: Rice plant response rating
Procedure, shortened: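 Each value is a visual 0–100 response rating taken against controls 13 to 15 days after treatment in the greenhouse. Plants received formulated chemical postemergence at the 1- to 4-leaf stage or, in flooded paddy, at the 2-leaf stage.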

velvetleaf = test: Test B pre-/postemergence herbicide test; assay type: in vivo, Abutilon theophrasti
Procedure, shortened: as §1

[2] = 125 g ai/ha, 0 is no effect, 100 is complete control, preemergence
[3] = 125 g ai/ha, visual rating, scale 0 (no effect) to 100 (complete control)
[4] = postemergence, 500 g ai/ha, scale 0 to 100, 0 is no effect, 100 is complete control

With CCc1nn(C(C)C)nc1C(=O)Nc1cccc(C(=O)N(C)C)c1 [Compound 358, N-[3-[(dimethylamino)carbonyl)phenyl]-5-ethyl-2-(1-methylethyl)-2H-1,2,3-triazole-4-carboxamide] the “Plant response rating (0 to 100 scale), Foxtail, Giant” value (giant foxtail; [2]) was 60, the pest or weed control at 125 g/ha (giant foxtail; Setaria faberi, post-emergence, 336 h, 125 g ai/ha, visual rating, scale 0 (no effect) to 100 (complete control), read-out: Foxtail, Giant plant response rating) was 10% and the pest or weed control at 500 g/ha (giant foxtail; Setaria faberi, post-emergence, 336 h, postemergence, scale 0 to 100, 0 is no effect, 100 is complete control, read-out: Foxtail, Giant plant response rating) was 30%. The pest or weed control at 500 g/ha (giant foxtail; Setaria faberi, pre-emergence, 336 h, visual rating, 0 = no effect, 100 = complete control, read-out: Plant response rating, Foxtail, Giant) was 100%, the pest or weed control at 1000 g/ha (ducksalad) was 90% and the pest or weed control at 125 g/ha (wild oat; [3]) was 20%. It also gave a pest or weed control at 500 g/ha (wild oat; [4]) of 30%, a pest or weed control at 125 g/ha (blackgrass; [3]) of 10% and a pest or weed control at 500 g/ha (blackgrass; [4]) of 40%. For the same molecule, the plant injury at 125 g/ha (wheat; [3]) was 0%, the plant injury at 500 g/ha (wheat; [4]) was 10% and the “Plant response rating (0 to 100 scale), Crabgrass, Large” value (large crabgrass; [2]) was 100. For the same molecule, the pest or weed control at 125 g/ha (large crabgrass; Digitaria sanguinalis, post-emergence, 125 g ai/ha, visual rating, scale 0 (no effect) to 100 (complete control), read-out: Crabgrass, Large plant response rating) was 10%, the pest or weed control at 500 g/ha (large crabgrass; Digitaria sanguinalis, post-emergence, postemergence, scale 0 to 100, 0 is no effect, 100 is complete control, read-out: Crabgrass, Large plant response rating) was 10% and the pest or weed control at 500 g/ha (large crabgrass; Digitaria sanguinalis, pre-emergence, visual rating, 0 = no effect, 100 = complete control, read-out: Plant response rating, Crabgrass, Large) was 100%. The “Plant response rating (0 to 100 scale), Pigweed” value (pigweed; [2]) was 70, the pest or weed control at 125 g/ha (pigweed; Amaranthus retroflexus, post-emergence, 336 h, 125 g ai/ha, visual rating, scale 0 (no effect) to 100 (complete control), read-out: Pigweed plant response rating) was 20% and the pest or weed control at 500 g/ha (pigweed; Amaranthus retroflexus, post-emergence, 336 h, postemergence, scale 0 to 100, 0 is no effect, 100 is complete control, read-out: Pigweed plant response rating) was 40%. For the same molecule, the pest or weed control at 500 g/ha (pigweed; Amaranthus retroflexus, pre-emergence, 336 h, visual rating, 0 = no effect, 100 = complete control, read-out: Plant response rating, Pigweed) was 100%, the pest or weed control at 1000 g/ha [1] was 80% and the “Plant response rating (0 to 100 scale), Corn” value (corn; [2]) was 60. For the same molecule, the plant injury at 125 g/ha (corn; Zea mays, post-emergence, 125 g ai/ha, visual rating, scale 0 (no effect) to 100 (complete control), read-out: Corn plant response rating) was 0%, the plant injury at 500 g/ha (corn; Zea mays, post-emergence, postemergence, 500 g ai/ha, scale 0 to 100, 0 is no effect, 100 is complete control, read-out: Corn plant response rating) was 0% and the Corn plant response rating (crop injury, 0 = no effect, 100 = complete kill) at 500 g/ha (corn; Zea mays, pre-emergence, 500 g ai/ha, visual rating, 0 = no effect, 100 = complete control) was 100%. The “Plant response rating (0 to 100 scale), Cocklebur” value (cocklebur; [2]) was 40, the pest or weed control at 125 g/ha (cocklebur; Xanthium strumarium, post-emergence, 125 g ai/ha, visual rating, scale 0 (no effect) to 100 (complete control), read-out: Cocklebur plant response rating) was 0% and the pest or weed control at 500 g/ha (cocklebur; Xanthium strumarium, post-emergence, postemergence, scale 0 to 100, 0 is no effect, 100 is complete control, read-out: Cocklebur plant response rating) was 20%. The pest or weed control at 500 g/ha (cocklebur; Xanthium strumarium, pre-emergence, visual rating, 0 = no effect, 100 = complete control, read-out: Plant response rating, Cocklebur) was 90%, the “Plant response rating (0 to 100 scale), Surinam Grass” value (Surinam grass; [2]) was 50 and the pest or weed control at 125 g/ha (Surinam grass; Urochloa decumbens, post-emergence, 125 g ai/ha, visual rating, scale 0 (no effect) to 100 (complete control), read-out: Surinam Grass plant response rating) was 10%. For the same molecule, the pest or weed control at 500 g/ha (Surinam grass; Urochloa decumbens, post-emergence, postemergence, scale 0 to 100, 0 is no effect, 100 is complete control, read-out: Surinam Grass plant response rating) was 10%, the pest or weed control at 500 g/ha (Surinam grass; Urochloa decumbens, pre-emergence, visual rating, 0 = no effect, 100 = complete control, read-out: Plant response rating, Surinam Grass) was 100% and the “Plant response rating (0 to 100 scale), Lambsquarters” value (lambsquarters; [2]) was 100. For the same molecule, the pest or weed control at 125 g/ha (lambsquarters; Chenopodium album, post-emergence, 336 h, 125 g ai/ha, visual rating, scale 0 (no effect) to 100 (complete control), read-out: Lambsquarters plant response rating) was 30%, the pest or weed control at 500 g/ha (lambsquarters; Chenopodium album, post-emergence, 336 h, postemergence, scale 0 to 100, 0 is no effect, 100 is complete control, read-out: Lambsquarters plant response rating) was 50% and the pest or weed control at 500 g/ha (lambsquarters; Chenopodium album, pre-emergence, 336 h, visual rating, 0 = no effect, 100 = complete control, read-out: Plant response rating, Lambsquarters) was 100%. For the same molecule, the “Plant response rating (0 to 100 scale), Barnyardgrass” value (barnyardgrass; [2]) was 70, the pest or weed control at 125 g/ha (barnyardgrass; Echinochloa crus-galli, post-emergence, 125 g ai/ha, visual rating, scale 0 (no effect) to 100 (complete control), read-out: Barnyardgrass plant response rating) was 10% and the pest or weed control at 500 g/ha (barnyardgrass; Echinochloa crus-galli, post-emergence, postemergence, scale 0 to 100, 0 is no effect, 100 is complete control, read-out: Barnyardgrass plant response rating) was 20%. For the same molecule, the pest or weed control at 500 g/ha (barnyardgrass; Echinochloa crus-galli, pre-emergence, visual rating, 0 = no effect, 100 = complete control, read-out: Plant response rating, Barnyardgrass) was 100%, the plant injury at 1000 g/ha (rice) was 70% and the “Plant response rating (0 to 100 scale), Velvetleaf” value (velvetleaf; [2]) was 50. For the same molecule, the pest or weed control at 125 g/ha (velvetleaf; Abutilon theophrasti, post-emergence, 336 h, 125 g ai/ha, visual rating, scale 0 (no effect) to 100 (complete control), read-out: Velvetleaf plant response rating) was 10% and the pest or weed control at 500 g/ha (velvetleaf; Abutilon theophrasti, post-emergence, 336 h, postemergence, 500 g ai/ha, scale 0 to 100, 0 is no effect, 100 is complete control, read-out: Velvetleaf plant response rating) was 20%.
